In patent US20240059689A1, “PURINE DERIVATIVES AS ANTICANCER AGENTS” (Tango Therapeutics, Inc., priority 2021, published 2024) one finds IC50 data, which are given here for 28 molecules.

pIC50: −log10 of the molar value.

For one assay, the target named is USP1-UAF1 (Homo sapiens, UniProt O94782). The assay can be described thus: Ubiquitin Rhodamine assay of USP1-UAF1 activity. Format: biochemical. The procedure:
Certain compounds of the disclosure were assessed for USP1-UAF1 activity in a Ubiquitin Rhodamine assay as described in Biology Example 1.

The next assay deals with HCC1954. The assay is described as follows: Viability assay, BRCA1 WT cell line HCC1954. Type of assay: cell-based. The following applies: Homo sapiens, HCC1954, viability, read-out: HCC1954 rel IC50. From the text:
(§1) Table 1 also indicates IC50 values in a viability assay for a non-isogenic pair of BRCA1 mutant (column 5-MDA-MB-436) and BRCA1 WT (column 6—HCC1954) cell lines. These values indicate the effect of treatment with compound on cell survival.

A further assay has as its system MDA-MB-436. The assay can be described thus: Viability assay, BRCA1 mutant cell line MDA-MB-436. Type of assay: cell-based. The settings on record: Homo sapiens, MDA-MB-436, viability, BRCA1 mutant MDA-MB-436; read-out: MDA-MB-436 rel IC50.
Source text: as §1

The next assay has as its system monoubiquitinated PCNA. The assay can be described thus: AlphaLISA assay measuring monoubiquitinated PCNA in MDA-MB-436. Format: cell-based. The following applies: Homo sapiens, MDA-MB-436, monoubiquitinated PCNA, read-out: Alpha Lisa IC50. The source says: Table 1 also indicates IC50 values for exemplary compounds in an AlphaLISA assay measuring monoubiquitinated PCNA in a BRCA1 mutant cell line (MDA-MB-436; column 7).

Sequence of USP1-UAF1 (O94782 whole entry): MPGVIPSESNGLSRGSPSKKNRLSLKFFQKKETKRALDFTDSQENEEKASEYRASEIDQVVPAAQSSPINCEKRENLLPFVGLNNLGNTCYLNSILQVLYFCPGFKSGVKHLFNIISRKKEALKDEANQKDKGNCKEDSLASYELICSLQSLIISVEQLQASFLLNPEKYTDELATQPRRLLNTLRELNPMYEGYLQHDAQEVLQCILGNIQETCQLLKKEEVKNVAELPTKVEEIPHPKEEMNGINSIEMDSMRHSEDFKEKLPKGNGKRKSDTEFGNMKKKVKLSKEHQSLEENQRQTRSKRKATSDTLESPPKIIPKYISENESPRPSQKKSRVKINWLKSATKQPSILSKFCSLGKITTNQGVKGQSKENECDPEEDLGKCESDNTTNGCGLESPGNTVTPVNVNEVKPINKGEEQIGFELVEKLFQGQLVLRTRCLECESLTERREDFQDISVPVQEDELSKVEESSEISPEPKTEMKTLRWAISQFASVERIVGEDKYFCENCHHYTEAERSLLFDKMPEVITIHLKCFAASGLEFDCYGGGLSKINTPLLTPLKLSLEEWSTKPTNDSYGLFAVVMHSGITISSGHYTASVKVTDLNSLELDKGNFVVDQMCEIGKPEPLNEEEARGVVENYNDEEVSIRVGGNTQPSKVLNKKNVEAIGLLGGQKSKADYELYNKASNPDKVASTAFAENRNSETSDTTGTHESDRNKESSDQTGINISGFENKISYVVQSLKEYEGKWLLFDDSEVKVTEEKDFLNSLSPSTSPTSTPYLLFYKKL
Sequence of USP1-UAF1 (Q8TAF3 whole entry partner): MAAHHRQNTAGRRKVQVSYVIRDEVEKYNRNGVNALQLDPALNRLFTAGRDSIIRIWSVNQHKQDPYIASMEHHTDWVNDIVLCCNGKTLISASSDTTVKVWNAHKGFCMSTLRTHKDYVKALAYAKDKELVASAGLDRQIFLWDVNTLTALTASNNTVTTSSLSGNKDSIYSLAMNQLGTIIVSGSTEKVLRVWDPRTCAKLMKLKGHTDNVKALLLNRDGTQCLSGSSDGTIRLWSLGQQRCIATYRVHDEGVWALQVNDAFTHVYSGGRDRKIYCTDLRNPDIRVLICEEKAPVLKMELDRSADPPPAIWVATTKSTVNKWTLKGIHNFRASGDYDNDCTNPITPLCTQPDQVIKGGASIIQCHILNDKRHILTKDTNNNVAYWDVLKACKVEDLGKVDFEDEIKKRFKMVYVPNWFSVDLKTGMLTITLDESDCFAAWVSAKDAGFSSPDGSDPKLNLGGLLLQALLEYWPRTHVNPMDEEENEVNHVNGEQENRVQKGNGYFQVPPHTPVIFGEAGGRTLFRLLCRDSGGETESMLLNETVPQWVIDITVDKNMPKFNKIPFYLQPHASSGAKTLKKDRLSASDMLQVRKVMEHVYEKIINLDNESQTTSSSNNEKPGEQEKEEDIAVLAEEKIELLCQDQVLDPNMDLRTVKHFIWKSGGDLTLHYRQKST

Turning to `CC(C)n1cc(C(F)(F)F)nc1-c1ccc(Cn2c(=N)n(C)c3cnc(-c4cccnc4OC(F)F)nc32)cc1` [Example T-051, 2-[2-(difluoromethoxy)-3-pyridyl]-9-[[4-[1-isopropyl-4-(trifluoromethyl)imidazol-2-yl]phenyl]methyl]-7-methyl-purin-8-imine], the pIC50 on USP1-UAF1 was 5.00 to 7.00; with HCC1954, ≤ 5.00; in the assay on MDA-MB-436, 5.00 to 6.60; in the assay with monoubiquitinated PCNA it was 5.00 to 6.60.

As to `COc1nsc(OC)c1-c1ncc2c(n1)n(Cc1ccc(-c3nc(C(F)(F)F)cn3C)cc1)c(=N)n2C` [Example T-052], the negative logarithm of the IC50 (pIC50) against USP1-UAF1 was 7.00 to 7.52; in the assay with HCC1954, 5.00 to 6.60; in the assay with MDA-MB-436, 6.60 to 7.00; with monoubiquitinated PCNA, 6.60 to 7.00.

Consider `Cn1cc(C(F)(F)F)nc1-c1ccc(Cn2c(=N)n(C)c3cnc(-c4cccnc4OC(F)(F)F)nc32)cc1` [Example T-053, 7-methyl-9-[[4-[I-methyl-4-(trifluoromethyl)imidazol-2-yl]phenyl]methyl]-2-[2-(trifluoromethoxy)-3-pyridyl]purin-8-imine], for which the negative logarithm of the IC50 (pIC50) at USP1-UAF1 is > 7.52; in the assay with HCC1954, ≤ 5.00; in the assay on MDA-MB-436, > 7.00; with monoubiquitinated PCNA, 6.60 to 7.00.

Consider `CC(C)c1ccccc1-c1ncc2c(n1)n(Cc1ccc(-c3nc(C(F)(F)F)cn3C)cc1)c(=N)n2CC(F)(F)F` [Example T-054], for which the pIC50 was 7.00 to 7.52 on USP1-UAF1, ≤ 5.00 with HCC1954, > 7.00 with MDA-MB-436 and > 7.00 in the assay on monoubiquitinated PCNA.

As to `CCn1cc(C(F)(F)F)nc1-c1ccc(Cn2c(=N)n(C)c3cnc(-c4cccnc4OC)nc32)cc1` [Example T-057], the pIC50 against USP1-UAF1 is 5.00 to 7.00; in the assay on HCC1954, ≤ 5.00; in the assay on MDA-MB-436 it was 5.00 to 6.60; in the assay on monoubiquitinated PCNA it was 5.00 to 6.60.

Regarding `CC(C)c1ccccc1-c1ncc2c(n1)n(Cc1ccc(-c3nc(C(F)(F)F)c(Br)n3C)cc1)c(=N)n2C` [Example T-059], the pIC50 at USP1-UAF1 was > 7.52; in the assay with HCC1954 it was 5.00 to 6.60; with MDA-MB-436 it was > 7.00; with monoubiquitinated PCNA it was > 7.00.

For `COc1ncccc1-c1ncc2c(n1)n(Cc1ccc(-c3nc(C(F)(F)F)cn3CC(F)F)cc1)c(=N)n2C` [Example T-060], the pIC50 against USP1-UAF1 was 5.00 to 7.00; in the assay with HCC1954, ≤ 5.00; with MDA-MB-436 it was ≤ 5.00; in the assay with monoubiquitinated PCNA it was 5.00 to 6.60.

Regarding `COn1cc(C(F)(F)F)nc1-c1ccc(Cn2c(=N)n(C)c3cnc(-c4ccccc4C(C)C)nc32)cc1` [Example T-061], the pIC50 was > 7.52 at USP1-UAF1, 5.00 to 6.60 in the assay on HCC1954, 6.60 to 7.00 in the assay with MDA-MB-436 and 6.60 to 7.00 in the assay with monoubiquitinated PCNA.

Consider `CCn1cc(C(F)(F)F)nc1-c1ccc(Cn2c(=N)n(C)c3cnc(-c4ccccc4C(F)(F)F)nc32)cc1` [Example T-063, 9-(4-(1-ethyl-4-(trifluoromethyl)-1H-imidazol-2-yl)benzyl)-7-methyl-2-(2-(trifluoromethyl)phenyl)-7H-purin-8(9H)-imine], for which the negative logarithm of the IC50 (pIC50) against USP1-UAF1 is 7.00 to 7.52; with HCC1954 it was ≤ 5.00; in the assay on MDA-MB-436, 6.60 to 7.00; in the assay on monoubiquitinated PCNA, 6.60 to 7.00.

As to `Cn1cc(C(F)(F)F)nc1-c1ccc(Cn2c(=N)n(C)c3cnc(-c4cccnc4OCC(C)(C)C)nc32)cc1` [Example T-064], the pIC50 is 5.00 to 7.00 at USP1-UAF1, ≤ 5.00 in the assay on HCC1954, 5.00 to 6.60 with MDA-MB-436 and 5.00 to 6.60 in the assay with monoubiquitinated PCNA.

Take `COc1nccc(F)c1-c1ncc2c(n1)n(Cc1ccc(-c3nc(C(F)(F)F)cn3C)cc1)c(=N)n2C` [Example T-065]: the pIC50 is 7.00 to 7.52 at USP1-UAF1, ≤ 5.00 with HCC1954, 6.60 to 7.00 with MDA-MB-436 and 6.60 to 7.00 in the assay on monoubiquitinated PCNA.

On to `COCCn1cc(C(F)(F)F)nc1-c1ccc(Cn2c(=N)n(C)c3cnc(-c4ccccc4C(F)(F)F)nc32)cc1` [Example T-066], for which the pIC50 on USP1-UAF1 was 5.00 to 7.00; in the assay with HCC1954 it was ≤ 5.00; in the assay on MDA-MB-436, 5.00 to 6.60; with monoubiquitinated PCNA, 5.00 to 6.60.

Take `Cn1cc(C(F)(F)F)nc1-c1ccc(Cn2c(=N)n(C)c3cnc(-c4c(Cl)cnn4C)nc32)cc1` [Example T-067]: the negative-log IC50 (pIC50) was 7.00 to 7.52 against USP1-UAF1, ≤ 5.00 with HCC1954, 5.00 to 6.60 in the assay with MDA-MB-436 and 5.00 to 6.60 in the assay with monoubiquitinated PCNA.

With `COc1ncnc(C2CC2)c1-c1ncc2c(n1)n(Cc1ccc(-c3nc(C(F)(F)F)cn3CC(F)F)cc1)c(=N)n2C` [Example T-069], the negative logarithm of the IC50 (pIC50) was 7.00 to 7.52 on USP1-UAF1, ≤ 5.00 in the assay with HCC1954, 6.60 to 7.00 in the assay with MDA-MB-436 and 6.60 to 7.00 in the assay on monoubiquitinated PCNA.

Take `Cc1ccc(-c2ncc3c(n2)n(Cc2ccc(-c4nc(C(F)(F)F)cn4C)cc2)c(=N)n3C)c(C(C)C)c1` [Example T-070, 2-(2-isopropyl-4-methyl-phenyl)-7-methyl-9-[[4-[1-methyl-4-(trifluoromethyl)imidazol-2-yl]phenyl]methyl]purin-8-imine]: the negative-log IC50 (pIC50) against USP1-UAF1 is 7.00 to 7.52; with HCC1954, 5.00 to 6.60; in the assay on MDA-MB-436, 5.00 to 6.60; in the assay on monoubiquitinated PCNA, 5.00 to 6.60.

For `CC(C)c1cc(C#N)ccc1-c1ncc2c(n1)n(Cc1ccc(-c3nc(C(F)(F)F)cn3C)cc1)c(=N)n2C` [Example T-071, 4-[8-imino-7-methyl-9-[[4-[1-methyl-4-(trifluoromethyl)imidazol-2-yl]phenyl]methyl]purin-2-yl]-3-isopropyl-benzonitrile], the pIC50 was 7.00 to 7.52 on USP1-UAF1, 5.00 to 6.60 in the assay on HCC1954, 6.60 to 7.00 with MDA-MB-436 and > 7.00 with monoubiquitinated PCNA.

With `CC(C)c1ncccc1-c1ncc2c(n1)n(Cc1ccc(-c3nc(C(F)(F)F)cn3C)cc1)c(=N)n2C` [Example T-076, 2-(2-isopropyl-3-pyridyl)-7-methyl-9-[[4-[1-methyl-4-(trifluoromethyl)imidazol-2-yl]phenyl]methyl]purin-8-imine], the pIC50 against USP1-UAF1 was 7.00 to 7.52; with HCC1954, ≤ 5.00; in the assay with MDA-MB-436 it was 5.00 to 6.60; with monoubiquitinated PCNA it was 6.60 to 7.00.

On to `COc1ncnc(C2CC2)c1-c1ncc2c(n1)n(Cc1ccc(-n3nc(C(F)(F)F)cc3OC)cc1)c(=N)n2C` [Example T-078], for which the negative-log IC50 (pIC50) on USP1-UAF1 was > 7.52; in the assay on HCC1954 it was ≤ 5.00; with MDA-MB-436 it was > 7.00; in the assay on monoubiquitinated PCNA, > 7.00.

For `Cn1cc(C(F)(F)F)nc1-c1ccc(Cn2c(=N)n(C)c3cnc(-c4cccnc4OCC(F)(F)F)nc32)cc1` [Example T-079, 7-methyl-9-[[4-[1-methyl-4-(trifluoromethyl)imidazol-2-yl]phenyl]methyl]-2-[2-(2,2,2-trifluoroethoxy)-3-pyridyl]purin-8-imine], the negative logarithm of the IC50 (pIC50) is 5.00 to 7.00 on USP1-UAF1, ≤ 5.00 in the assay with HCC1954, 5.00 to 6.60 in the assay with MDA-MB-436 and 6.60 to 7.00 in the assay with monoubiquitinated PCNA.

For `CC(C)c1ccccc1-c1ncc2c(n1)n(Cc1ccc(-c3nc(C(F)(F)F)cn3C)cc1O)c(=N)n2C` [Example T-081], the negative-log IC50 (pIC50) on USP1-UAF1 is > 7.52; in the assay with HCC1954, ≤ 5.00; in the assay on MDA-MB-436 it was 6.60 to 7.00; with monoubiquitinated PCNA, > 7.00.

Turning to `Cn1cc(C(F)(F)F)nc1-c1ccc(Cn2c(=N)n(C)c3cnc(-c4cccnc4OC(F)F)nc32)cc1` [Example T-082, 2-[2-(difluoromethoxy)-3-pyridyl]-7-methyl-9-[[4-[1-methyl-4-(trifluoromethyl)imidazol-2-yl]phenyl]methyl]purin-8-imine], the pIC50 is > 7.52 on USP1-UAF1, ≤ 5.00 with HCC1954, > 7.00 with MDA-MB-436 and > 7.00 in the assay with monoubiquitinated PCNA.

As to `CC(C)c1ccccc1-c1nc(C(F)(F)F)c2c(n1)n(Cc1ccc(-c3nc(C(F)(F)F)cn3C)cc1)c(=N)n2C` [Example T-084], the pIC50 at USP1-UAF1 is > 7.52; in the assay with HCC1954 it was 5.00 to 6.60; with MDA-MB-436, 6.60 to 7.00; with monoubiquitinated PCNA, 6.60 to 7.00.

Consider `COc1nc(C#N)ccc1-c1ncc2c(n1)n(Cc1ccc(-c3nc(C(F)(F)F)cn3C)cc1)c(=N)n2C` [Example T-085], for which the pIC50 at USP1-UAF1 was 5.00 to 7.00; with HCC1954 it was 5.00 to 6.60; in the assay with MDA-MB-436, 5.00 to 6.60; in the assay on monoubiquitinated PCNA, 5.00 to 6.60.

`Cn1cc(C(F)(F)F)nc1-c1ccc(Cn2c(=N)n(C)c3cnc(-c4ccccc4C4CC4)nc32)cc1` [Example T-087, 2-(2-cyclopropylphenyl)-7-methyl-9-[[4-[1-methyl-4-(trifluoromethyl)imidazol-2-yl]phenyl]methyl]purin-8-imine]: the pIC50 is > 7.52 against USP1-UAF1, 5.00 to 6.60 in the assay with HCC1954, > 7.00 in the assay on MDA-MB-436 and > 7.00 in the assay on monoubiquitinated PCNA.

Take `COc1ncccc1-c1ncc2c(n1)n(Cc1ccc(-c3nc(C(F)(F)F)cn3C)cc1)c(=N)n2C` [Example T-090]: the negative-log IC50 (pIC50) on USP1-UAF1 was 5.00 to 7.00; in the assay with HCC1954 it was ≤ 5.00; in the assay on MDA-MB-436, 5.00 to 6.60; in the assay on monoubiquitinated PCNA, 5.00 to 6.60.

For `Cc1cc(Cn2c(=N)n(C)c3cnc(-c4ccccc4C(F)(F)F)nc32)ccc1-c1nc(C(F)(F)F)c[nH]1` [Example T-092], the negative-log IC50 (pIC50) is 7.00 to 7.52 against USP1-UAF1, 5.00 to 6.60 in the assay with HCC1954, 5.00 to 6.60 with MDA-MB-436 and 5.00 to 6.60 in the assay on monoubiquitinated PCNA.

For the molecule `COc1ncccc1-c1ncc2c(n1)n(Cc1ccc(-c3nc(C(F)(F)F)cn3CCF)cc1)c(=N)n2C` [Example T-093], the negative-log IC50 (pIC50) against USP1-UAF1 is 5.00 to 7.00; with HCC1954, ≤ 5.00; in the assay with MDA-MB-436, 5.00 to 6.60; in the assay on monoubiquitinated PCNA it was 5.00 to 6.60.

With `CCOc1cc(C(F)(F)F)nn1-c1ccc(Cn2c(=N)n(C)c3cnc(-c4c(OC)ncnc4C4CC4)nc32)cc1` [Example T-094], the pIC50 against USP1-UAF1 is > 7.52; in the assay with HCC1954, ≤ 5.00; with MDA-MB-436, > 7.00; in the assay with monoubiquitinated PCNA, > 7.00.

Usually pIC50 stands for the IC50 on a negative log10 scale, so that one unit is a factor of ten.
